The target in test [1] is T1, Mcl-1/Bim interaction, recombinant human Mcl-1 (171-327) (Homo sapiens, UniProt Q07820).
T1 construct: made in house
Put plainly: Cell free Mcl-1: Bim Affinity Assay (Mcl-1 HTRF). In kind it is binding. Conditions: TR-FRET, 0.1 nM Mcl-1 (171-327), 0.05 nM biotin-Bim (51-76). In outline: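 TR-FRET competition assay with biotinylated human Bim peptide (residues 51-76); reaction plates incubated overnight before reading. IC50 values came from duplicate data fitted to a four-parameter sigmoidal competition curve.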

For test [2], the system named is OPM-2 human multiple myeloma cell line. In words: Cell Viability Assay (OPM-2 10 FBS). In kind it is cell-based. Conditions: OPM-2 cells, 16 h, CellTiter-Glo. On the procedure:
Cell Viability Assay (OPM-2 10 FBS)
Cells were seeded into 384-well plates at 3000 cells/well density in complete growth medium containing 10% FBS, and incubated for 16 h with serially diluted test compounds in a 37° C. incubator with 5% CO2. Cell viability was tested using CellTiter-Glo® assay (Promega, Madison, WI) according to the manufacturer recommendations. Luminescence was determined using an EnVision® Multilabel plate reader 25 min after the addition of detection reagent. IC50 values were then calculated with Xlfit using a logistical 4-parameter fit model in GraphPad Prism (GraphPad Software, San Diego, CA) or in Genedata Screener® (Genedata, Basel, Switzerland).

T1 sequence (Q07820 171-327): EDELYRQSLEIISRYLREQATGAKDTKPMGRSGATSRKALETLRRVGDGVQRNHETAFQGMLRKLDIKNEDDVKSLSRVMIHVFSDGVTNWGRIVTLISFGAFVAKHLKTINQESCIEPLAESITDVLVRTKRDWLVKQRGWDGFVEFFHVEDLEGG

As for `O=C1NS(=O)(=O)[C@@H]2CCC[C@H](/C=C/[C@H](O)[C@@H]3CC[C@H]3CN3C[C@@]4(CCCc5cc(Cl)ccc54)COc4ccc1cc43)C2` (single isomer, unassigned) [Example 109], the figures for the IC50 in test [1] and in test [2] were 1.34 nM and 12200 nM, respectively.

For the compound `O=C1NS(=O)(=O)[C@H]2CCC[C@@H](/C=C/[C@H](O)[C@@H]3CC[C@H]3CN3C[C@@]4(CCCc5cc(Cl)ccc54)COc4ccc1cc43)C2` (single isomer, unassigned) [Example 110], the values for the IC50 in test [1] and in test [2] were 1.34 nM and 5580 nM, respectively.

Turning to `C[C@H]1[C@H]2/C=C/[C@H](O)[C@@H]3CC[C@H]3CN3C[C@@]4(CCCc5cc(Cl)ccc54)COc4ccc(cc43)C(=O)NS(=O)(=O)[C@H]1CCC2` (single isomer, unassigned) [Example 111], the concentration for half-maximal inhibition (IC50) was found to be 30.8 nM in test [1] and 17800 nM in test [2] (Homo sapiens, OPM-2, 16 h).

On to `CO[C@H]1/C=C/C(CO)C(C)CS(=O)(=O)NC(=O)c2ccc3c(c2)N(C[C@@H]2CC[C@H]21)C[C@@]1(CCCc2cc(Cl)ccc21)CO3` (single isomer, unassigned) [Example 126], for which the IC50 in test [1] came to 0.448 nM; in test [2], 496 nM.

Turning to `CO[C@H]1/C=C/[C@@H](CO)C[C@H](C)S(=O)(=O)NC(=O)c2ccc3c(c2)N(C[C@@H]2CC[C@H]21)C[C@@]1(CCCc2cc(Cl)ccc21)CO3` (single isomer, unassigned) [Example 127], the figures for the 50% inhibitory concentration (IC50) in test [1] and in test [2] were 0.341 nM and 1850 nM, respectively.

For `COC1C=CC(CO)CC(C)S(=O)(=O)NC(=O)c2ccc3c(c2)N(CC2CCC21)CC1(CCCc2cc(Cl)ccc21)CO3` (single isomer, unassigned) [Example 128], the IC50 in test [1] came to 0.603 nM; in test [2] (Homo sapiens, OPM-2, 16 h), 2520 nM.

As to `C[C@@]12C/C=C/[C@H](O)[C@@H]3CC[C@H]3CN3C[C@@]4(CCCc5cc(Cl)ccc54)COc4ccc(cc43)C(=O)NS(=O)(=O)[C@H]1CCC2` (single isomer, unassigned) [Example 130], the IC50 in test [1] was 0.386 nM; in test [2], 228 nM.

Consider `C[C@@]12C/C=C/[C@H](O)[C@@H]3CC[C@H]3CN3C[C@@]4(CCCc5cc(Cl)ccc54)COc4ccc(cc43)C(=O)NS(=O)(=O)[C@H]1CCC2` (single isomer, unassigned) [Example 131], for which the IC50 in test [1] stood at 1.83 nM; in test [2], 1820 nM.

As for `CC12CC=CC(O)C3CCC3CN3CC4(CCCc5cc(Cl)ccc54)COc4ccc(cc43)C(=O)NS(=O)(=O)C1CCC2` (single isomer, unassigned) [Example 133], the half-maximal inhibitory concentration (IC50) in test [1] came to 2 nM; in test [2] (Homo sapiens, OPM-2, 16 h) it was 2750 nM.

With `C[C@H]1C/C=C\[C@H](O)[C@@H]2CC[C@H]2CN2C[C@@]3(CCCc4cc(Cl)ccc43)COc3ccc(cc32)C(=O)NS(=O)(=O)[C@H]1C[C@H]1CCCO1` (single isomer, unassigned) [Example 136], the 50% inhibitory concentration (IC50) in test [1] amounted to 0.259 nM; in test [2] (Homo sapiens, OPM-2, 16 h), 130 nM.

Turning to `O=C1NS(=O)(=O)[C@H](C2CC2)CC/C=C/[C@H](O)[C@@H]2CC[C@H]2CN2C[C@@]3(CCCc4cc(Cl)ccc43)COc3ccc1cc32` (single isomer, unassigned) [Example 148], the IC50 in test [1] was found to be 0.285 nM; in test [2] it was 458 nM.

In the case of `O=C1NS(=O)(=O)[C@H](C2CC2)CC/C=C/[C@H](O)[C@@H]2CC[C@H]2CN2C[C@@]3(CCCc4cc(Cl)ccc43)COc3ccc1cc32` (single isomer, unassigned) [Example 149], the concentration for half-maximal inhibition (IC50) in test [1] stood at 0.77 nM; in test [2] it was 1330 nM.

For `C[C@@H]1CC(=O)NC[C@@H]2CC[C@H]2CN2C[C@@]3(CCCc4cc(Cl)ccc43)COc3ccc(cc32)C(=O)NS(=O)(=O)[C@@H]1C` (single isomer, unassigned) [Example 151], the IC50 in test [1] stood at 3.56 nM; in test [2], 9170 nM.

Turning to `CC1CC(=O)N(C)CC2CCC2CN2CC3(CCCc4cc(Cl)ccc43)COc3ccc(cc32)C(=O)NS(=O)(=O)C1C` (single isomer, unassigned) [Example 152], the IC50 in test [1] was 19.6 nM; in test [2] (Homo sapiens, OPM-2, 16 h), 29200 nM.

With `CC(C)(C)S(=O)(=O)CC[C@H]1CC/C=C/[C@H](O)[C@@H]2CC[C@H]2CN2C[C@@]3(CCCc4cc(Cl)ccc43)COc3ccc(cc32)C(=O)NS1(=O)=O` (single isomer, unassigned) [Example 155], the figures for the IC50 in test [1] and in test [2] were 0.846 nM and 11600 nM, respectively.

For the compound `CO[C@H]1/C=C/CC[C@@H](CCS(=O)(=O)C(C)(C)C)S(=O)(=O)NC(=O)c2ccc3c(c2)N(C[C@@H]2CC[C@H]21)C[C@@]1(CCCc2cc(Cl)ccc21)CO3` (single isomer, unassigned) [Example 156], the IC50 came to 0.831 nM in test [1] and 266 nM in test [2].

With `COC(=O)[C@@H]1CC/C=C/[C@H](O)[C@@H]2CC[C@H]2CN2C[C@@]3(CCCc4cc(Cl)ccc43)COc3ccc(cc32)C(=O)NS1(=O)=O` (single isomer, unassigned) [Example 160], the values for the IC50 in test [1] and in test [2] were 0.397 nM and 5300 nM, respectively.

As to `COC(=O)CO[C@H]1/C=C/CC[C@@H](C2CC2)S(=O)(=O)NC(=O)c2ccc3c(c2)N(C[C@@H]2CC[C@H]21)C[C@@]1(CCCc2cc(Cl)ccc21)CO3` (single isomer, unassigned) [Example 161], the IC50 in test [1] was found to be 1.31 nM; in test [2], 86 nM.

In the case of `O=C1NS(=O)(=O)[C@@H](CCS(=O)(=O)Cc2ccccc2)CC/C=C/[C@H](O)[C@@H]2CC[C@H]2CN2C[C@@]3(CCCc4cc(Cl)ccc43)COc3ccc1cc32` (single isomer, unassigned) [Example 162], the 50% inhibitory concentration (IC50) in test [1] is 0.979 nM; in test [2] it was 8400 nM.

`O=C1NS(=O)(=O)[C@@H](CCS(=O)(=O)Cc2ccccc2)CC/C=C/[C@H](O)[C@@H]2CC[C@H]2CN2C[C@@]3(CCCc4cc(Cl)ccc43)COc3ccc1cc32` (single isomer, unassigned) [Example 163]: the concentration for half-maximal inhibition (IC50) in test [1] stood at 5.07 nM; in test [2], 18900 nM.

As to `C[C@H]1/C=C/[C@H](O)[C@@H]2CC[C@H]2CN2C[C@@]3(CCCc4cc(Cl)ccc43)COc3ccc(cc32)C(=O)NS(=O)(=O)C1` (single isomer, unassigned) [Example 164], the results for the IC50 in test [1] and in test [2] were 1.44 nM and 21900 nM, respectively.

Turning to `CC1C=CC(O)C2CCC2CN2CC3(CCCc4cc(Cl)ccc43)COc3ccc(cc32)C(=O)NS(=O)(=O)C1` (single isomer, unassigned) [Example 165], the 50% inhibitory concentration (IC50) in test [1] amounted to 3.8 nM; in test [2] (Homo sapiens, OPM-2, 16 h), 25000 nM.

Consider `C[C@@H]1[C@@H](C)/C=C/[C@H](O)[C@@H]2CC[C@H]2CN2C[C@@]3(CCCc4cc(Cl)ccc43)COc3ccc(cc32)C(=O)NS1(=O)=O` (single isomer, unassigned) [Example 166], for which the IC50 in test [1] was 0.418 nM; in test [2], 2070 nM.

In the case of `O=C1NS(=O)(=O)[C@H](CC2CCOCC2)CC/C=C/[C@H](O)[C@@H]2CC[C@H]2CN2C[C@@]3(CCCc4cc(Cl)ccc43)COc3ccc1cc32` (single isomer, unassigned) [Example 186], the IC50 in test [1] was 7.91 nM; in test [2], 4660 nM.

As to `O=C1NS(=O)(=O)[C@H](CC2CCOCC2)CC/C=C/[C@H](O)[C@@H]2CC[C@H]2CN2C[C@@]3(CCCc4cc(Cl)ccc43)COc3ccc1cc32` (single isomer, unassigned) [Example 187], the IC50 came out at 0.248 nM in test [1] and 426 nM in test [2].

With `CC[C@@H]1CC[C@H](O)/C=C/[C@@H]2CC[C@H]2CN2C[C@@]3(CCCc4cc(Cl)ccc43)COc3ccc(cc32)C(=O)NS1(=O)=O` (single isomer, unassigned) [Example 197], the IC50 in test [1] stood at 1.12 nM; in test [2] it was 2600 nM.

As for `CCC1CCC(OC)C=CC2CCC2CN2CC3(CCCc4cc(Cl)ccc43)COc3ccc(cc32)C(=O)NS1(=O)=O` (single isomer, unassigned) [Example 199], the IC50 in test [1] turned out to be 6.04 nM; in test [2] (Homo sapiens, OPM-2, 16 h), 10200 nM.

As to `CC1CC=CC(O)C2CCC2CN2CC3(CCCc4cc(Cl)ccc43)COc3ccc(cc32)C(=O)NS(=O)(=O)C1` (single isomer, unassigned) [Example 231], the half-inhibitory concentration (IC50) in test [1] is 45.2 nM; in test [2] (Homo sapiens, OPM-2, 16 h) it was 23100 nM.

Regarding `O=C1NS(=O)(=O)CCC/C(Br)=C\[C@@H](O)[C@@H]2CC[C@H]2CN2C[C@@]3(CCCc4cc(Cl)ccc43)COc3ccc1cc32` (single isomer, unassigned) [Example 236], the figures for the IC50 in test [1] and in test [2] were 6.42 nM and 13700 nM, respectively.

For `CC1CCCS(=O)(=O)NC(=O)c2ccc3c(c2)N(CC2CCC2C(O)C1)CC1(CCCc2cc(Cl)ccc21)CO3` (single isomer, unassigned) [Example 240], the IC50 was 2.54 nM in test [1] and 3730 nM in test [2] (Homo sapiens, OPM-2, 16 h).

Take `C[C@H]1CCCS(=O)(=O)NC(=O)c2ccc3c(c2)N(C[C@@H]2CC[C@H]2[C@@H](O)C1)C[C@@]1(CCCc2cc(Cl)ccc21)CO3` (single isomer, unassigned) [Example 241]: the figures for the half-maximal inhibitory concentration (IC50) in test [1] and in test [2] were 4.85 nM and 7390 nM, respectively.

In the case of `C[C@H]1CCCS(=O)(=O)NC(=O)c2ccc3c(c2)N(C[C@@H]2CC[C@H]2[C@@H](O)C1)C[C@@]1(CCCc2cc(Cl)ccc21)CO3` (single isomer, unassigned) [Example 242], the values for the half-maximal inhibitory concentration (IC50) in test [1] and in test [2] were 3.05 nM and 467 nM, respectively.

With `C[C@H]1CCCS(=O)(=O)NC(=O)c2ccc3c(c2)N(C[C@@H]2CC[C@H]2[C@@H](O)C1)C[C@@]1(CCCc2cc(Cl)ccc21)CO3` (single isomer, unassigned) [Example 243], the results for the IC50 in test [1] and in test [2] were 10.9 nM and 12100 nM, respectively.

Source of the values: patent US12091425B2 (AMGEN INC., priority 2016, dated 2024).
